Measured values as given in patent US20160237406A1, “SEBOCYTES, SEBOCYTE CELL LINES AND APPLICATIONS THEREOF” (priority 2001, published 2016).

Tested on: immortalized sebocytes (SZ95) and clones
Assay: Growth behavior / cell proliferation test (4-methylumbelliferyl heptanoate fluorescence assay)
Type: cell-based, human
Conditions: for proliferation response of clones stimulated by retinoids: other clones, corresponds to response of normal human epidermal keratinocytes; for proliferation response of clones stimulated by retinoids / proliferation response of clones inhibited by retinoids: 10^-7 M retinoid, 9 days, FIG. 9; for proliferation response of clones inhibited by retinoids: some clones, order 13-cis-retinoic acid>all-trans-retinoic acid>>Acitretin
Method: _Cells were seeded in 96 well culture plates at densities of 0.5 to 4×10^3 cell/well. Cell proliferation was assessed by the 4-methylumbelliferylheptanoatefluorescence assay and measured automatically (Zouboulis et al. Melanoma. Res. 1991; 1:91-95).
To this extent, on the day of evaluation, the culture medium was removed, the cells were washed twice with PBS and […] 100 μg solution of 4-methylumbelliferyl heptanoate (Sigma, Deisenhofen, Germany) in PBS were added to each well. The plates were then incubated at 37° C. for 30 minutes and released fluorescence was measured by a suitable fluorescence measuring device (Titertec-Fluoroscan II; Flow, Meckenheim, Germany). Fluorescence units were obtained at 355 nm excitation and 460 nm emission filters.
_5α-dihydrctestosterone (5α-DHT; Sigma) was dissolved in DMSO and subsequently in serum-free, phenol-free modified DMEM/Ham's F12-Medium (1:1) (Gibco-BRL) with 2 mM n-Acetyl-L-alanyl-L-glutamine which was supplemented with 5 ng/ml EGF, 50 μg/ml bovine pituary extract, 1 mg/ml fatty acid-free bovine serum albumine (Boehringer Mannheim) and 50 μg/ml gentamycine to obtain a final concentration of 10^−6 M 5α-DHT and 0.1% DMSO. 0.1% DMSO alone served as a control. The cells (0.5 to 2×10^3/well) were treated with 5α-DHT for 18 days.
For the treatment with retinoids, all-trans-retinoic acid, 13-cis-retinoic acid and acitretin were dissolved in DMSO and subsequently placed in serum-free modified DME-Medium/Ham's F12-Medium (1:1) with […] N-Acetyl-L-alanyl-L-glutamine which was supplemented with 5 ng/ml EGE, 50 μg/ml bovine pituary extract, 1 mg/ml fatty acid-free bovine serum albumine and 50·μg/ml gentamycine to obtain a final concentration of 10^−7 M retinoid and 0,1% DMSO. 0,1% DMSO alone served as a control. Retinoids were handled under dim amber light. The cells (0.5 to 1×10^3/well) were treated with the retinoids for 9 days.

Row | Compound | effect on proliferation of the cells (10^-6 M 5α-DHT, serum-free medium, after the 8th day, vs control (p<0.05; p<0.01), FIG. 8) | population doubling time (exemplary sebocyte clone, seeding 2.000/well, serum-free medium supplemented with 10^-6 M 5α-DHT, 18 days, control 136 hours) [h] | proliferation response of clones stimulated by retinoids (serum-free medium) | proliferation response of clones inhibited by retinoids (serum-free medium)
1 | C[C@]12CCC(=O)C[C@@H]1CC[C@@H]1[C@@H]2CC[C@]2(C)[C@@H](O)CC[C@@H]12 [5α-DHT, 5α-dihydrctestosterone] | increased the proliferation of the cells significantly | 53.7 |  | 
2 | CC1=C(/C=C/C(C)=C/C=C/C(C)=C\C(=O)O)C(C)(C)CCC1 [13-cis-retinoic acid] |  |  | stimulated in proliferation | inhibition of proliferation
3 | COc1cc(C)c(/C=C/C(C)=C/C=C/C(C)=C/C(=O)O)c(C)c1C [Acitretin, acitretin] |  |  |  | inhibition of proliferation
4 | CC1=C(/C=C/C(C)=C/C=C/C(C)=C/C(=O)O)C(C)(C)CCC1 [all-trans-retinoic acid] |  |  | stimulated in proliferation | inhibition of proliferation
